{"source": "patent US12617779B2", "about": "“Self degradation-type CDK9 inhibitor prodrug and liposome encapsulating same” (Sumitomo Pharma Co., Ltd., priority 2021, dated 2026)", "test": "Evaluation of conversion rate to active form in buffer solution (Experimental Example 1)", "format": "physicochemical", "method": "For Examples 1 to 16 and Comparative Examples 1 to 14, the attrition rate of the test compound and the conversion rate of the test compound to Alvocidib in a buffer solution were calculated by the following method.\nExamples 1 to 16 and Comparative Examples 1 to 14 were each left in buffer solutions adjusted to pH 5.0, 5.5, 6.0, 6.5, 7.0 and 7.4, respectively, at a concentration of 25 umol/L at 37° C. After 0, 0.5, 1, 2 and 3 hours, the residual rates of the compounds of Examples […] and the production rate of Alvocidib were determined by HPLC.\nThe buffer solutions used at each pH are as follows. • pH 5.0: 50 mM citrate buffer solution (pH 5.0) • pH 5.5: 50 mM citrate buffer solution (pH 5.5) • pH 6.0: 50 mM phosphate buffer solution (pH 6.0) • pH 6.5: 50 mM phosphate buffer solution (pH 6.5) • pH 7.0: 50 mM phosphate buffer solution (pH 7.0) • pH 7.4: 50 mM phosphate buffer solution (pH 7.4)\nThe measurement conditions for HPLC are as follows."}
{"smiles": "CCCCCCC(=O)O[C@@H]1CN(C)CC[C@@H]1c1c(O)cc(O)c2c(=O)cc(-c3ccccc3Cl)oc12", "note": "[Comparative Example 11, reference compound]", "values": [{"measurement": "Production rate of Alvocidib", "setting": "pH7.4, 0 hr", "result": 1.0, "unit": "%"}, {"measurement": "Residual rate", "setting": "pH7.4, 0 hr", "result": 92.9, "unit": "%"}, {"measurement": "Conversion to Alvocidib at pH 7.4", "setting": "pH 7.4, 37° C., up to 3 hours", "result": "slowly converted to Alvocidib"}, {"measurement": "Production rate of Alvocidib", "setting": "pH7.4, 0.5 hr", "result": 1.2, "unit": "%"}, {"measurement": "Residual rate", "setting": "pH7.4, 0.5 hr", "result": 92.3, "unit": "%"}, {"measurement": "Production rate of Alvocidib", "setting": "pH7.4, 1 hr", "result": 1.3, "unit": "%"}, {"measurement": "Residual rate", "setting": "pH7.4, 1 hr", "result": 91.8, "unit": "%"}, {"measurement": "Production rate of Alvocidib", "setting": "pH7.4, 2 hr", "result": 1.5, "unit": "%"}, {"measurement": "Residual rate", "setting": "pH7.4, 2 hr", "result": 91.3, "unit": "%"}]}
